Bridge positions count the residues as written; N and C are the ends. Peptide text beside a SMILES is read from it.
Legend:
human Kv1.3 (CHO) = target: T1, human Kv1.3 (CHO) (Homo sapiens, UniProt P22001); assay: cell-based
T1 construct: expressed in transfected cells; host or cells: CHO

human Kv1.1 (HEK293) = target: T2, human Kv1.1 (HEK293) (Homo sapiens, UniProt Q09470); assay: cell-based
T2 construct: expressed in transfected cells; host or cells: HEK293
T2 sequence (Q09470 whole entry): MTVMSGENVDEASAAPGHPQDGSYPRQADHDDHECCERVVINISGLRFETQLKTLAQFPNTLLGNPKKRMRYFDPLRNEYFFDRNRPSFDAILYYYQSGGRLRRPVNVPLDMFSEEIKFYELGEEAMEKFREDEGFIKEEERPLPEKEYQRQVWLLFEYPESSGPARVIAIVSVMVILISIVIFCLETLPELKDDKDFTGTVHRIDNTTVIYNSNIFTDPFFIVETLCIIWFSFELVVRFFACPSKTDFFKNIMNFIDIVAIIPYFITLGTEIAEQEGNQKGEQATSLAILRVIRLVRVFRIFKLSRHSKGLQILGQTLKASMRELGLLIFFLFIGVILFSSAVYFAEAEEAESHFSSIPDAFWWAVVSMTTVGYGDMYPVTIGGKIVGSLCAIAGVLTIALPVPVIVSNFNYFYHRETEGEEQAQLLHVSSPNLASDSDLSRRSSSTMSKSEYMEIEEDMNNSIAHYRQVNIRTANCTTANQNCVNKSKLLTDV

T1 sequence (P22001 whole entry): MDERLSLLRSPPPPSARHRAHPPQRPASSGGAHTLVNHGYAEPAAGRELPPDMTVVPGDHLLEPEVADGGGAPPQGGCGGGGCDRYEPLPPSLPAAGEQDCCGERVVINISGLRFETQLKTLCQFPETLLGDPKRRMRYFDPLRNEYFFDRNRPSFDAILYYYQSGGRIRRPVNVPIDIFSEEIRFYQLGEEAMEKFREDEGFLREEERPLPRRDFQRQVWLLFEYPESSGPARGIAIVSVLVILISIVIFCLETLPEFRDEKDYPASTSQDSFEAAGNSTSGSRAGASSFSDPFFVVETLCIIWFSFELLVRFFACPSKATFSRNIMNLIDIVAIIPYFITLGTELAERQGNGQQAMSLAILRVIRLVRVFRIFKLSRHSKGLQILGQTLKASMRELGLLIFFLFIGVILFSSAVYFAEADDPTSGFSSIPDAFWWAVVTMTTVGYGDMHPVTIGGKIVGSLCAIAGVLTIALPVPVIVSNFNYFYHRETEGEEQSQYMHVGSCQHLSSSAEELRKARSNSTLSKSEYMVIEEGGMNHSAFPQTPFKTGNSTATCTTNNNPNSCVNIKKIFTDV

Compound	IC50 (human Kv1.3 (CHO))	IC50 (human Kv1.1 (HEK293))
CC[C@H](C)[C@H](NC(=O)[C@@H](NC(=O)CN)C(C)C)C(=O)N[C@H](C(=O)N[C@@H](CC(N)=O)C(=O)N[C@H](C(=O)N[C@@H](CCCCN)C(=O)N[C@H]1CSSC[C@@H]2NC(=O)[C@H](CCCCN)NC(=O)CNC(=O)[C@H](Cc3ccccc3)NC(=O)[C@H](CCCNC(=N)N)NC(=O)[C@H](CCSC)NC(=O)CNC(=O)[C@H](C)NC(=O)[C@H](CCCCN)NC(=O)[C@H](CCCCN)NC(=O)[C@@H]3CSSC[C@@H](C(=O)N[C@H](C(=O)N4CCC[C@H]4C(=O)N[C@@H](CCCCN)C(=O)O)[C@@H](C)O)NC(=O)[C@H](Cc4c[nH]cn4)NC(=O)[C@H](CSSC[C@H](NC(=O)[C@H](CCC(N)=O)NC(=O)[C@H](CCCNC(=N)N)NC(=O)[C@H](CO)NC(=O)[C@H](C)NC(=O)[C@H](CCCCN)NC1=O)C(=O)N[C@@H](CC(C)C)C(=O)N[C@@H](CCC(=O)O)C(=O)N1CCC[C@H]1C(=O)N3)NC(=O)[C@H](CCCCN)NC(=O)CNC(=O)[C@H](CC(N)=O)NC(=O)[C@H](CCSC)NC2=O)C(C)C)[C@@H](C)CC [I10A] (H-GVIINVKCKASRQCLEPCKKAGMRFGKCMNGKCHCTPK-OH; disulfide 8-28, 14-33, 18-35)	0.0912 nM	0.00446 nM
CC[C@H](C)[C@@H]1NC(=O)[C@H](CCCCN)NC(=O)[C@@H](NC(=O)[C@H](CCCCN)NC(=O)[C@@H](NC(=O)[C@H](CC(N)=O)NC(=O)[C@@H](NC(=O)[C@@H](NC(=O)[C@@H](NC(=O)CN)C(C)C)[C@@H](C)CC)[C@@H](C)CC)C(C)C)CSSC[C@@H]2NC(=O)[C@H](CCCCN)NC(=O)[C@H](C)NC(=O)[C@H](Cc3ccccc3)NC(=O)[C@H](CCCNC(=N)N)NC(=O)[C@H](CCSC)NC(=O)CNC(=O)[C@H](C)NC(=O)[C@H](CCCCN)NC(=O)[C@H](CCCCN)NC(=O)[C@@H]3CSSC[C@@H](C(=O)N[C@H](C(=O)N4CCC[C@H]4C(=O)N[C@@H](CCCCN)C(=O)O)[C@@H](C)O)NC(=O)[C@H](Cc4c[nH]cn4)NC(=O)[C@H](CSSC[C@H](NC(=O)[C@H](CCC(N)=O)NC(=O)[C@H](CCCNC(=N)N)NC(=O)[C@H](CO)NC1=O)C(=O)N[C@@H](CC(C)C)C(=O)N[C@@H](CCC(=O)O)C(=O)N1CCC[C@H]1C(=O)N3)NC(=O)[C@H](CCCCN)NC(=O)CNC(=O)[C@H](CC(N)=O)NC(=O)[C@H](CCSC)NC2=O [G26A] (H-GVIINVKCKISRQCLEPCKKAGMRFAKCMNGKCHCTPK-OH; disulfide 8-28, 14-33, 18-35)	0.711 nM	0.733 nM
CC[C@H](C)[C@@H]1NC(=O)[C@H](CCCCN)NC(=O)[C@@H](NC(=O)[C@H](CCCCN)NC(=O)[C@@H](NC(=O)[C@H](CC(N)=O)NC(=O)[C@@H](NC(=O)[C@@H](NC(=O)[C@@H](NC(=O)CN)C(C)C)[C@@H](C)CC)[C@@H](C)CC)C(C)C)CSSC[C@@H]2NC(=O)[C@H](CCCCN)NC(=O)CNC(=O)[C@H](Cc3ccccc3)NC(=O)[C@H](CCCNC(=N)N)NC(=O)[C@H](CCSC)NC(=O)CNC(=O)[C@H](CCCNC(=N)N)NC(=O)[C@H](CCCCN)NC(=O)[C@H](CCCCN)NC(=O)[C@@H]3CSSC[C@@H](C(=O)N[C@H](C(=O)N4CCC[C@H]4C(=O)N[C@@H](CCCCN)C(=O)O)[C@@H](C)O)NC(=O)[C@H](Cc4c[nH]cn4)NC(=O)[C@H](CSSC[C@H](NC(=O)[C@H](CCC(N)=O)NC(=O)[C@H](CCCNC(=N)N)NC(=O)[C@H](CO)NC1=O)C(=O)N[C@@H](CC(C)C)C(=O)N[C@@H](CCC(=O)O)C(=O)N1CCC[C@H]1C(=O)N3)NC(=O)[C@H](CCCCN)NC(=O)CNC(=O)[C@H](CC(N)=O)NC(=O)[C@H](CCSC)NC2=O [A21R] (H-GVIINVKCKISRQCLEPCKKRGMRFGKCMNGKCHCTPK-OH; disulfide 8-28, 14-33, 18-35)	0.0149 nM	0.00261 nM
CC[C@H](C)[C@@H]1NC(=O)[C@H](CCCCN)NC(=O)[C@@H](NC(=O)[C@H](CCCCN)NC(=O)[C@@H](NC(=O)[C@H](CC(N)=O)NC(=O)[C@@H](NC(=O)[C@@H](NC(=O)[C@@H](NC(=O)CN)C(C)C)[C@@H](C)CC)[C@@H](C)CC)C(C)C)CSSC[C@@H]2NC(=O)[C@H](CCCCN)NC(=O)CNC(=O)[C@H](Cc3ccccc3)NC(=O)[C@H](CCCNC(=N)N)NC(=O)[C@H](CCSC)NC(=O)CNC(=O)[C@H](C)NC(=O)[C@H](CCCCN)NC(=O)[C@H](CCCCN)NC(=O)[C@@H]3CSSC[C@@H](C(=O)N[C@H](C(=O)N4CCC[C@H]4C(=O)N[C@@H](CCCCN)C(=O)O)[C@@H](C)O)NC(=O)[C@H](Cc4c[nH]cn4)NC(=O)[C@H](CSSC[C@H](NC(=O)[C@H](CCC(N)=O)NC(=O)[C@H](CCC(=O)O)NC(=O)[C@H](CO)NC1=O)C(=O)N[C@@H](CC(C)C)C(=O)N[C@@H](CCC(=O)O)C(=O)N1CCC[C@H]1C(=O)N3)NC(=O)[C@H](CCCCN)NC(=O)CNC(=O)[C@H](CC(N)=O)NC(=O)[C@H](CCSC)NC2=O [R12E] (H-GVIINVKCKISEQCLEPCKKAGMRFGKCMNGKCHCTPK-OH; disulfide 8-28, 14-33, 18-35)	0.0897 nM	0.193 nM
CC[C@H](C)[C@@H]1NC(=O)[C@H](CCCCN)NC(=O)[C@@H](NC(=O)[C@H](CCCCN)NC(=O)[C@@H](NC(=O)[C@H](CC(N)=O)NC(=O)[C@@H](NC(=O)[C@@H](NC(=O)[C@@H](NC(=O)CN)C(C)C)[C@@H](C)CC)[C@@H](C)CC)C(C)C)CSSC[C@@H]2NC(=O)[C@H](CCCCN)NC(=O)CNC(=O)[C@H](Cc3ccccc3)NC(=O)[C@H](CCCNC(=N)N)NC(=O)[C@H](CCSC)NC(=O)CNC(=O)[C@H](C)NC(=O)[C@H](CCCCN)NC(=O)[C@H](CCCCN)NC(=O)[C@@H]3CSSC[C@@H](C(=O)N[C@H](C(=O)N4CCC[C@H]4C(=O)N[C@@H](CCCCN)C(=O)O)[C@@H](C)O)NC(=O)[C@H](Cc4c[nH]cn4)NC(=O)[C@H](CSSC[C@H](NC(=O)[C@H](CCC(N)=O)NC(=O)[C@H](CCCNC(=N)N)NC(=O)[C@H](CO)NC1=O)C(=O)N[C@@H](CC(C)C)C(=O)N[C@@H](CCC(=O)O)C(=O)N[C@@H](CCCNC(=N)N)C(=O)N3)NC(=O)[C@H](CCCCN)NC(=O)CNC(=O)[C@H](CC(N)=O)NC(=O)[C@H](CCSC)NC2=O [P17R] (H-GVIINVKCKISRQCLERCKKAGMRFGKCMNGKCHCTPK-OH; disulfide 8-28, 14-33, 18-35)	0.0104 nM	< 0.00152 nM
CC[C@H](C)[C@@H]1NC(=O)[C@H](CCCCN)NC(=O)[C@@H](NC(=O)[C@H](CCCCN)NC(=O)[C@@H](NC(=O)[C@H](CC(N)=O)NC(=O)[C@H](CCC(=O)O)NC(=O)[C@@H](NC(=O)[C@@H](NC(=O)CN)C(C)C)[C@@H](C)CC)C(C)C)CSSC[C@@H]2NC(=O)[C@H](CCCCN)NC(=O)CNC(=O)[C@H](Cc3ccccc3)NC(=O)[C@H](CCCNC(=N)N)NC(=O)[C@H](CCSC)NC(=O)CNC(=O)[C@H](C)NC(=O)[C@H](CCCCN)NC(=O)[C@H](CCCCN)NC(=O)[C@@H]3CSSC[C@@H](C(=O)N[C@H](C(=O)N4CCC[C@H]4C(=O)N[C@@H](CCCCN)C(=O)O)[C@@H](C)O)NC(=O)[C@H](Cc4c[nH]cn4)NC(=O)[C@H](CSSC[C@H](NC(=O)[C@H](CCC(N)=O)NC(=O)[C@H](CCCNC(=N)N)NC(=O)[C@H](CO)NC1=O)C(=O)N[C@@H](CC(C)C)C(=O)N[C@@H](CCC(=O)O)C(=O)N1CCC[C@H]1C(=O)N3)NC(=O)[C@H](CCCCN)NC(=O)CNC(=O)[C@H](CC(N)=O)NC(=O)[C@H](CCSC)NC2=O [I4E] (H-GVIENVKCKISRQCLEPCKKAGMRFGKCMNGKCHCTPK-OH; disulfide 8-28, 14-33, 18-35)	0.0157 nM	0.00319 nM
CC[C@H](C)[C@@H]1NC(=O)[C@H](CCCCN)NC(=O)[C@@H](NC(=O)[C@H](CCCCN)NC(=O)[C@@H](NC(=O)[C@H](CC(N)=O)NC(=O)[C@@H](NC(=O)[C@@H](NC(=O)[C@@H](NC(=O)CN)C(C)C)[C@@H](C)CC)[C@@H](C)CC)C(C)C)CSSC[C@@H]2NC(=O)[C@H](CCCCN)NC(=O)CNC(=O)[C@H](Cc3ccccc3)NC(=O)[C@H](CCCNC(=N)N)NC(=O)[C@H](CCSC)NC(=O)[C@H](CCCNC(=N)N)NC(=O)[C@H](C)NC(=O)[C@H](CCCCN)NC(=O)[C@H](CCCCN)NC(=O)[C@@H]3CSSC[C@@H](C(=O)N[C@H](C(=O)N4CCC[C@H]4C(=O)N[C@@H](CCCCN)C(=O)O)[C@@H](C)O)NC(=O)[C@H](Cc4c[nH]cn4)NC(=O)[C@H](CSSC[C@H](NC(=O)[C@H](CCC(N)=O)NC(=O)[C@H](CCCNC(=N)N)NC(=O)[C@H](CO)NC1=O)C(=O)N[C@@H](CC(C)C)C(=O)N[C@@H](CCC(=O)O)C(=O)N1CCC[C@H]1C(=O)N3)NC(=O)[C@H](CCCCN)NC(=O)CNC(=O)[C@H](CC(N)=O)NC(=O)[C@H](CCSC)NC2=O [G22R] (H-GVIINVKCKISRQCLEPCKKARMRFGKCMNGKCHCTPK-OH; disulfide 8-28, 14-33, 18-35)	0.0237 nM	0.00349 nM
CC[C@H](C)[C@@H]1NC(=O)[C@H](CCCCN)NC(=O)[C@@H](NC(=O)[C@H](CCCCN)NC(=O)[C@@H](NC(=O)[C@H](CC(N)=O)NC(=O)[C@@H](NC(=O)[C@@H](NC(=O)[C@@H](NC(=O)CN)C(C)C)[C@@H](C)CC)[C@@H](C)CC)C(C)C)CSSC[C@@H]2NC(=O)[C@H](CCCCN)NC(=O)[C@H](CCCNC(=N)N)NC(=O)[C@H](Cc3ccccc3)NC(=O)[C@H](CCCNC(=N)N)NC(=O)[C@H](CCSC)NC(=O)CNC(=O)[C@H](C)NC(=O)[C@H](CCCCN)NC(=O)[C@H](CCCCN)NC(=O)[C@@H]3CSSC[C@@H](C(=O)N[C@H](C(=O)N4CCC[C@H]4C(=O)N[C@@H](CCCCN)C(=O)O)[C@@H](C)O)NC(=O)[C@H](Cc4c[nH]cn4)NC(=O)[C@H](CSSC[C@H](NC(=O)[C@H](CCC(N)=O)NC(=O)[C@H](CCCNC(=N)N)NC(=O)[C@H](CO)NC1=O)C(=O)N[C@@H](CC(C)C)C(=O)N[C@@H](CCC(=O)O)C(=O)N1CCC[C@H]1C(=O)N3)NC(=O)[C@H](CCCCN)NC(=O)CNC(=O)[C@H](CC(N)=O)NC(=O)[C@H](CCSC)NC2=O [G26R] (H-GVIINVKCKISRQCLEPCKKAGMRFRKCMNGKCHCTPK-OH; disulfide 8-28, 14-33, 18-35)	> 3.33 nM	> 3.33 nM

— patent publication US20090299044A1 (priority 2006, published 2009)
